Source: paper PMC3179182 (Bioorganic & medicinal chemistry letters, 2010)

Key:
mGlu5 [1] = assay: mGlu5 assays; format: cell-based; conditions: mode of mGlu5 pharmacology (NAM, PAM, Ago-PAM, Part. Antag., Inactive)
mGlu5 [2] = target: T1, mGlu5 (Rattus norvegicus, UniProt P31424); assay: mGlu5 assays; format: cell-based; conditions: NAM IC50 relative to 8
mGlu5 [3] = conditions: % partial; cited from earlier work
mGlu5 [4] = target: T1, mGlu5; conditions: phenylethynyl pyrimidine series; cited from earlier work
T1 sequence (P31424 21-1203): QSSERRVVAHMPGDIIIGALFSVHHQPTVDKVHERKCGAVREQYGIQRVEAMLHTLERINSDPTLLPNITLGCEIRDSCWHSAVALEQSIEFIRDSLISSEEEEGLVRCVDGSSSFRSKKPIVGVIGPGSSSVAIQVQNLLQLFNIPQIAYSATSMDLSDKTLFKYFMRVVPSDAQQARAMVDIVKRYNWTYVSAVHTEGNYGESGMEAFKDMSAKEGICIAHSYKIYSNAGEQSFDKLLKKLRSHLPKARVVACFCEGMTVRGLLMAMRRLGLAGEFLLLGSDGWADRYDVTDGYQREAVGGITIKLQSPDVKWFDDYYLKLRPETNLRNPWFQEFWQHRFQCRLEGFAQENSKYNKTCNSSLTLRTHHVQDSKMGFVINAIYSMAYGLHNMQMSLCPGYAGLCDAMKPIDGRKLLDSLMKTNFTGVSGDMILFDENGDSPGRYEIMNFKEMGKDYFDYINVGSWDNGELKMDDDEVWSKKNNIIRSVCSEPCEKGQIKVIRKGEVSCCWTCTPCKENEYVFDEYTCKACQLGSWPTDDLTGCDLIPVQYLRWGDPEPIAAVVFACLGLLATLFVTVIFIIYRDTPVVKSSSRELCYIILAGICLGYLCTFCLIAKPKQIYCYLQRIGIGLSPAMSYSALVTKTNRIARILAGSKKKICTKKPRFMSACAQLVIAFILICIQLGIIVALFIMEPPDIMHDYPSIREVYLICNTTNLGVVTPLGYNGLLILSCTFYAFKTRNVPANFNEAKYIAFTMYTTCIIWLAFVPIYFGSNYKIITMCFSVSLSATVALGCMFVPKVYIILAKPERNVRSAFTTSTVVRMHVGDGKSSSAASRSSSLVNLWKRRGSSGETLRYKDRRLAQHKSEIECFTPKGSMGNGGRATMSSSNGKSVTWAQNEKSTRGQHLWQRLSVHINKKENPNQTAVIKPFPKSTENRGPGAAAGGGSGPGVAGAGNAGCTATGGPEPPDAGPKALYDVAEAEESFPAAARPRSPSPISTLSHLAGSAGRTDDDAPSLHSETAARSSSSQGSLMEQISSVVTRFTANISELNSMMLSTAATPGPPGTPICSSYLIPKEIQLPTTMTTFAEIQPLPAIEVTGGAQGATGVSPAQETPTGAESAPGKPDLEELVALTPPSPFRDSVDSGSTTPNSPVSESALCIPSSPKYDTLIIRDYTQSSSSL

T1 sequence (P31424 21-1203): as above

| SMILES | Pharmacology (mGlu5 [1]) | other results |
| --- | --- | --- |
| Cc1cccc(-c2noc([C@H]3CCCCN3C(=O)C3CCCC3)n2)c1 [21c] | partial antagonists | – |
| Cc1cccc(-c2noc([C@H]3CCCCN3C(=O)C3CCCCC3)n2)c1 [21d] | full non-competitive antagonists (NAMs) | – |
| O=C(C1CCC1)N1CCCC[C@@H]1c1nc(-c2cccc(F)c2)no1 [22b/20e] | – | Pharmacology (mGlu5 [1]; listed as 22b): pure PAM activity |
| O=C(C1CCC1)N1CCC[C@@H]1c1nc(-c2cccc(F)c2)no1 [(R)-23a] | potent mGlu5 PAM | – |
| O=C(C1CCC1)N1CCC[C@H](c2nc(-c3cccc(Cl)c3)no2)C1 [(S)-15e] | – | increase in potency over 8 (mGlu5 [2]): ~ 41 fold |
| O=C(C1CCC1)N1CCC[C@H]1c1nc(-c2cccc(F)c2)no1 [(S)-23a] | very weak PAM | – |
| C(#Cc1cncnc1)c1ccccc1 [compound 2] | – | partial antagonism (mGlu5 [3]): 71% |
| Cc1cccc(C#Cc2cncnc2)c1 [compound 3] | – | IC50 (mGlu5 [4]): 7.5 nM |

Second part, led by results:

| Pharmacology (mGlu5 [1]) | SMILES | other results |
| --- | --- | --- |
| ago-PAMs | O=C(C1CC1)N1CCCC[C@@H]1c1nc(-c2cccc(F)c2)no1 [22a] | – |
| ago-PAMs | O=C(C1CCCC1)N1CCCC[C@@H]1c1nc(-c2cccc(F)c2)no1 [22c] | – |
| pure PAM activity | O=C(C1CCCCC1)N1CCCC[C@@H]1c1nc(-c2cccc(F)c2)no1 [22d] | – |
| low micromolar PAMs | O=C(C1CCC1)N1CCCC1c1nc(-c2cccc(F)c2)no1 (stereo not shown) [23a] | – |
| low micromolar PAMs | O=C(C1CCC1)N1CCCC1c1nc(-c2ccc(F)cc2)no1 (stereo not shown) [23b] | – |
